Legend:
[1] = target: T1, Gal4-RORγ-LBD (Homo sapiens, UniProt P51449); assay: Gal4-RORγ Luciferase Reporter Assay in HEK-293T Cells; type: cell-based; details: HEK-293 cells, luciferase reporter; for Gal4-RORγ Assay Max Response: maximum response
T1 construct: expressed in transfected cells
T1 sequence (P51449 269-508 limits assumed): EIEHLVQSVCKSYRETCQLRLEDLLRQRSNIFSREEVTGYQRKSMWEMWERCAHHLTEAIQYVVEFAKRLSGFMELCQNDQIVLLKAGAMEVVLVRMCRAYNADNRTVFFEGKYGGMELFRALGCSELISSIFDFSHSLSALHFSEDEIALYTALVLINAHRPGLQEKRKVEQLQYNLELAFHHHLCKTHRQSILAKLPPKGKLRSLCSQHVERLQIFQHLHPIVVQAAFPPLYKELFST
Method: Assay procedures and results are described below.
In the following protocol, HEK-293 cells were transfected with a construct comprising the Gal4 DNA binding domain fused to the ligand binding domain of RORγ (Gal4-RORγ-LBD) in a pcDNA3.1neo plasmid, and also with a reporter construct comprising pGL4.31 Gal4-luciferase (Promega). Control cells were prepared similarly using empty pcDNA3.1neo and pGL4.31 vectors.
Trans-IT reagent (Mirus, 60 μL) at room temperature was added drop wise to OptiMEM (Invitrogen, 1.5 ml). This reagent mixture was mixed by inversion then incubated for 5 to 30 minutes at room temperature. It then was added to a solution of both expression vectors (5 μg each), mixed, and incubated at room temperature for about 20 minutes. HEK-293 cells were harvested from incubation flasks by removing the media, treating with TrypLE Express (Invitrogen), and incubating until the cells detached from the bottom of the flask (approximately 2-5 minutes). 10 Million cells were collected by centrifugation and re-suspended in 10 mL of Dulbecco's Modified Eagle Medium, High Glucose (DMEM, Invitrogen) containing 10% Fetal Bovine Serum and 100 IU each of penicillin and streptomycin. The re-suspended cells and the transfection mixture were added to a T75 flask, mixed and incubated overnight at 37° C. and 5% CO2.
The cells were harvested as described above, counted, and centrifuged to obtain the desired number of cells, then re-suspended in complete growth media at 0.75×10^6 cells/mL. The RORγ antagonist, ursolic acid, was added to the cells at a final concentration of […]. Cells were plated at 20 µL of cell suspension/well (10,000-15,000 cells/well) in white tissue culture treated 384 well plates. Test compounds were dissolved at 10 mM in DMSO then diluted into complete growth medium to 5× the final intended test concentration. These drug stock solutions, 5 µL/well were added to the tissue culture plate. The final DMSO concentration was 0.2%. The plates were briefly centrifuged then incubated overnight at 37° C. and 5% CO2. To conduct the assay, the tissue culture plates were allowed to equilibrate to room temperature and One-Glo luciferase reagent (Promega, 25 µL/well) was added. The plates were briefly centrifuged then incubated at room temperature for 10 minutes. The luciferase intensity was read on an Envision plate reader (Perkin Elmer). […] The luciferase signal in the absence of ursolic acid or test compound is defined at 100. The Max Response is the upper plateau in the signal as determined by line-fit using a 4-parameter logistic model in PRISM (GraphPad).

[2] = target: T2, RORγ-LBD (Homo sapiens, UniProt P51449); assay: RORγ-Ligand Binding Domain (LBD) TR-FRET Assay; type: biochemical; details: for TR-FRET Assay Max Response: maximum response;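 for TR-FRET Assay Max Response: 665/615 nm signal ratio set to 100 without ursolic acid or test compound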
T2 construct: made in house; host or cells: SF9 cells (baculovirus); used as diluted lysate
T2 sequence (P51449 269-508 limits assumed): T1 sequence (P51449 269-508 limits assumed)
How it was run: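 Compounds, diluted in DMSO and then in assay buffer (1% DMSO final), were combined with His-tagged RORγ-LBD lysate at roughly 3 nM final and a 200 nM biotinylated SRC1 LXXLL peptide. Ursolic acid was included at 2 μM final. Coactivator recruitment was detected by TR-FRET.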

| SMILES | EC50 ([1]; in presence of ursolic acid) [nM] | EC50 ([2]; RORγ-LBD TR-FRET assay) [nM] | EC50 ([1]; with ursolic acid) [nM] | EC50 ([2]; RORγ-LBD TR-FRET) [nM] | Gal4-RORγ Assay Max Response ([1]; in presence of ursolic acid) | TR-FRET Assay Max Response ([2]; RORγ-LBD TR-FRET assay) |
| --- | --- | --- | --- | --- | --- | --- |
| COc1cc(S(=O)(=O)N2c3cc(/C=C/c4c(F)cccc4Cl)ccc3C[C@@H](O)[C@H]2C)ccc1F (racemic) [Example 168, (2R,3R)-7-((E)-2-Chloro-6-fluorostyryl)-1-((4-fluoro-3-methoxyphenyl)sulfonyl)-2-methyl-1,2,3,4-tetrahydroquinolin-3-ol] | < 500 | < 500 |  |  | * (a value in the range of 30 to 90) | *** (a value in the range of greater than 150 to 200) |
| COc1cc(S(=O)(=O)N2c3cc(/C=C(\C)c4c(F)cccc4Cl)ccc3C[C@@H](O)[C@H]2C)ccc1F (racemic) [Example 169, (2R,3R)-7-((E)-2-(2-Chloro-6-fluorophenyl)prop-1-en-1-yl)-1-((4-fluoro-3-methoxyphenyl)sulfonyl)-2-methyl-1,2,3,4-tetrahydroquinolin-3-ol] | < 500 | < 500 |  |  | * (a value in the range of 30 to 90) | *** (a value in the range of greater than 150 to 200) |
| C[C@@H]1[C@H](O)Cc2ccc(/C=C/c3c(F)cccc3Cl)cc2N1S(=O)(=O)c1cccc(C(F)(F)F)c1 (racemic) [Example 170, (2R,3R)-7-((E)-2-Chloro-6-fluorostyryl)-2-methyl-1-((3-(trifluoromethyl)phenyl)sulfonyl)-1,2,3,4-tetrahydroquinolin-3-ol] | 500 to 5000 | < 500 |  |  | *** (a value in the range of greater than 150 to 200) | *** (a value in the range of greater than 150 to 200) |
| C/C(=C\c1ccc2c(c1)N(S(=O)(=O)c1cccc(C(F)(F)F)c1)[C@H](C)[C@H](O)C2)c1c(F)cccc1Cl (racemic) [Example 171, (2R,3R)-7-((E)-2-(2-Chloro-6-fluorophenyl)prop-1-en-1-yl)-2-methyl-1-((3-(trifluoromethyl)phenyl)sulfonyl)-1,2,3,4-tetrahydroquinolin-3-ol] | 500 to 5000 | < 500 |  |  | ** (a value in the range of greater than 90 to 150) | *** (a value in the range of greater than 150 to 200) |
| COc1cc(S(=O)(=O)N2c3cc(/C=C/c4c(F)cccc4Cl)ccc3C[C@H](O)[C@H]2C)ccc1F (racemic) [Example 174, rac-(2R,3S)-7-((E)-2-Chloro-6-fluorostyryl)-1-((4-fluoro-3-methoxyphenyl)sulfonyl)-2-methyl-1,2,3,4-tetrahydroquinolin-3-ol] | 500 to 5000 | < 500 |  |  | * (a value in the range of 30 to 90) | ** (a value in the range of greater than 90 to 150) |
| COc1cc(S(=O)(=O)N2c3cc(/C=C(\C)c4c(F)cccc4Cl)ccc3C[C@H](O)[C@H]2C)ccc1F (racemic) [Example 175, rac-(2R,3S)-7-((E)-2-(2-Chloro-6-fluorophenyl)prop-1-en-1-yl)-1-((4-fluoro-3-methoxyphenyl)sulfonyl)-2-methyl-1,2,3,4-tetrahydroquinolin-3-ol] | 500 to 5000 | < 500 |  |  | * (a value in the range of 30 to 90) | ** (a value in the range of greater than 90 to 150) |
| C[C@@H]1[C@@H](O)Cc2ccc(/C=C/c3c(F)cccc3Cl)cc2N1S(=O)(=O)c1cccc(C(F)(F)F)c1 (racemic) [Example 176, rac-(2R,3S)-7-((E)-2-Chloro-6-fluorostyryl)-2-methyl-1-((3-(trifluoromethyl)phenyl)sulfonyl)-1,2,3,4-tetrahydroquinolin-3-ol] | 500 to 5000 | < 500 |  |  | ** (a value in the range of greater than 90 to 150) | *** (a value in the range of greater than 150 to 200) |
| C/C(=C\c1ccc2c(c1)N(S(=O)(=O)c1cccc(C(F)(F)F)c1)[C@H](C)[C@@H](O)C2)c1c(F)cccc1Cl (racemic) [Example 177, rac-(2R,3S)-7-((E)-2-(2-Chloro-6-fluorophenyl)prop-1-en-1-yl)-2-methyl-1-((3-(trifluoromethyl)phenyl)sulfonyl)-1,2,3,4-tetrahydroquinolin-3-ol] | 500 to 5000 | < 500 |  |  | ** (a value in the range of greater than 90 to 150) | ** (a value in the range of greater than 90 to 150) |

Second part, led by results:

| EC50 ([1]; in presence of ursolic acid) [nM] | EC50 ([2]; RORγ-LBD TR-FRET assay) [nM] | EC50 ([1]; with ursolic acid) [nM] | EC50 ([2]; RORγ-LBD TR-FRET) [nM] | SMILES | Gal4-RORγ Assay Max Response ([1]; in presence of ursolic acid) | TR-FRET Assay Max Response ([2]; RORγ-LBD TR-FRET assay) |
| --- | --- | --- | --- | --- | --- | --- |
|  |  | 500 to 5000 | < 500 | COc1cc(S(=O)(=O)N2CCCc3ccc(O[C@@H]4c5ccccc5C[C@H]4C)cc32)ccc1F (relative stereo) [Example 25E, 1-((4-fluoro-3-methoxyphenyl)sulfonyl)-7-(((trans)-2-methyl-2,3-dihydro-1H-inden-1-yl)oxy)-1,2,3,4-tetrahydroquinoline] |  |  |
| 500 to 5000 | < 500 |  |  | O=C(O)CC[C@H]1CC(S(=O)(=O)c2cccc(C(F)(F)F)c2)c2cc(OCc3c(F)cccc3Cl)ccc2O1 (stereo in doubt) [Example 186A, 3-(6-((2-chloro-6-fluorobenzyl)-oxy)-4-((3-(trifluoromethyl)-phenyl)sulfonyl)chroman-2-yl)propanoic acid] |  |  |
|  |  | 500 to 5000 | < 500 | C/C(=C\c1ccc2c(c1)N(S(=O)(=O)c1cccc(C(F)(F)F)c1)CC(C(=O)O)C2)c1c(F)cccc1C(F)(F)F (stereo not drawn) [Example 15C, (E)-7-(2-(2-fluoro-6-(trifluoromethyl)phenyl)prop-1-en-1-yl)-1-((3-(trifluoromethyl)phenyl)sulfonyl)-1,2,3,4-tetrahydroquinoline-3-carboxylic acid] |  |  |
|  |  | 500 to 5000 | < 500 | O=C(O)C1Cc2ccc(/C=C/c3c(Cl)cccc3C(F)(F)F)cc2N(S(=O)(=O)c2cccc(C(F)(F)F)c2)C1 (stereo not drawn) [Example 15D, (E)-7-(2-chloro-6-(trifluoromethyl)styryl)-1-((3-(trifluoromethyl)phenyl)sulfonyl)-1,2,3,4-tetrahydroquinoline-3-carboxylic acid] |  |  |
|  |  | < 500 | < 500 | COc1cc(S(=O)(=O)N2CCCc3ccc(OC4CCCc5ccccc54)cc32)ccc1F (stereo not drawn) [Example 25C, 1-((4-fluoro-3-methoxyphenyl)sulfonyl)-7-((1,2,3,4-tetrahydronaphthalen-1-yl)oxy)-1,2,3,4-tetrahydroquinoline] |  |  |
|  |  | 500 to 5000 | < 500 | O=S(=O)(c1cccc(C(F)(F)F)c1)N1CCCc2cc(OCc3c(F)cccc3Cl)ccc21 [Example 25J, 6-((2-chloro-6-fluorobenzyl)oxy)-1-((3-(trifluoromethyl)phenyl)sulfonyl)-1,2,3,4-tetrahydroquinoline] |  |  |
|  |  | < 500 | < 500 | COc1cc(S(=O)(=O)N2CCCc3ccc(OCc4c(Cl)cccc4Cl)cc32)ccc1F [Example 25P, 7-((2,6-dichlorobenzyl)oxy)-1-((4-fluoro-3-methoxyphenyl)sulfonyl)-1,2,3,4-tetrahydroquinoline] |  |  |
|  |  | < 500 | < 500 | COc1cc(S(=O)(=O)N2CCCc3ccc(OCc4c(Cl)cccc4C(F)(F)F)cc32)ccc1F [Example 25Q, 7-((2-chloro-6-(trifluoromethyl)benzyl)oxy)-1-((4-fluoro-3-methoxyphenyl)sulfonyl)-1,2,3,4-tetrahydroquinoline] |  |  |
